Here are results for nine molecules from ChEMBL document CHEMBL1938245, “aza-Flavanones as potent cross-species microRNA inhibitors that arrest cell cycle” (Bioorg Med Chem Lett, 2012).

Data set [1] concerns Nucleic Acid. Kind of data set: Inhibition of miR-4644 in human MCF7 cells assessed as reduction in luminescence at 4 uM after 24 hrs by luciferase reporter gene assay relative to control. The class given is cell-based. In general terms: Reporter assays use an easily measured gene product as a stand-in for the process of interest.
In data set [2] the test system is Nucleic Acid. Put plainly: Inhibition of miR-4644 in human HeLa cells assessed as reduction in luminescence at 4 uM after 24 hrs by luciferase reporter gene assay relative to control. It counts as cell-based.
Data set [3] has as its system Nucleic Acid. Put plainly: Inhibition of miR-4644 in human MCF7 cells assessed as increase in luminescence at 4 uM after 24 hrs by luciferase reporter gene assay relative to control. It counts as cell-based.
The test system of data set [4] is Nucleic Acid. Put plainly: Inhibition of miR-4644 in human HeLa cells assessed as increase in luminescence at 4 uM after 24 hrs by luciferase reporter gene assay relative to control. It counts as cell-based.
Data set [5] has as its system Drosophila. Put plainly: Inhibition of miR-14 in transgenic Drosophila larvae expressing EGFP assessed as increase in EGFP protein expression in wing disc at 50 uM, po by Western blot analysis relative to control. The class given is functional, organism-based. (In general: In western blotting, separated proteins are transferred to a membrane and probed.)
The subject of the next data set is MCF-10A. Kind of data set: Cytotoxicity against human MCF10A cells. It counts as cell-based.
In data set [6] the test system is MCF7. Kind of data set: Cell cycle arrest in human MCF7 cells assessed as accumulation at G2/M phase at 4 uM after 24 hrs using propidium iodide staining by flow cytometry (reference value: 11%). It counts as functional. A general note: Flow cytometry measures light scatter and fluorescence of single cells or particles in a stream.
Data set [7] deals with MCF7. Put plainly: Ratio of IC50 for human MCF10A cells to IC50 for human MCF7 cells.
Data set [8] concerns Nucleic Acid. Put plainly: Inhibition of pri-miR-4644 expression in human MCF7 cells at 4 uM after 10 mins by qRT-PCR analysis. It counts as cell-based.
For data set [9], the system named is Drosophila. Put plainly: Down regulation of mature-miR-14 in Drosophila larvae at 50 uM, po by qRT-PCR analysis relative to control. The class given is functional, organism-based.
The test system of data set [10] is Nucleic Acid. Put plainly: Inhibition of Pri-miR-4644 expression in human HeLa cells at 4 uM after 10 mins by qRT-PCR analysis. It counts as cell-based.
Data set [11] concerns Nucleic Acid. Put plainly: Inhibition of miR14 in Drosophila melanogaster S2 cells at 4 uM after 24 hrs by luciferase reporter gene assay. The class given is cell-based.
Data set [12] has as its system MCF7. Kind of data set: Cell cycle arrest in human MCF7 cells assessed as accumulation at S phase at 4 uM after 24 hrs using propidium iodide staining by flow cytometry (reference value: 9%). The class given is functional.
Data set [13] concerns MCF7. Kind of data set: Cell cycle arrest in human MCF7 cells assessed as accumulation at G0/G1 phase at 4 uM after 24 hrs using propidium iodide staining by flow cytometry (reference value: 79%). The class given is functional.
Data set [14] concerns Nucleic Acid. Kind of data set: Inhibition of mature-miR-4644 expression in human MCF7 cells at 4 uM after 10 mins by qRT-PCR analysis. It counts as cell-based.
Data set [15] deals with Drosophila. Kind of data set: Down regulation of miR-3 in Drosophila larvae at 50 uM, po by qRT-PCR analysis relative to control. It counts as functional, organism-based.
Data set [16] has as its system Drosophila. Put plainly: Inhibition of miR-14 in transgenic Drosophila larvae assessed as increase in fluorescence in wing disc at 50 uM, po by EGFP reporter gene assay using confocal microscopy relative to control. It counts as functional, organism-based.
In data set [17] the test system is Nucleic Acid. Kind of data set: Inhibition of miR-30A in human HeLa cells assessed as increase in luminescence at 4 uM after 24 hrs by luciferase reporter gene assay relative to control. The class given is cell-based.
Data set [18] concerns Drosophila. Kind of data set: Down regulation of miR-14 in Drosophila larvae at 50 uM, po by qRT-PCR analysis relative to control. It counts as functional.
Data set [19] deals with Drosophila. Put plainly: Down regulation of pri-miR-14 in Drosophila larvae at 50 uM, po by qRT-PCR analysis relative to control. It counts as functional, organism-based.
The test system of data set [20] is MCF7. Put plainly: Ratio of IC50 for HEK cells to IC50 for human MCF7 cells.
Data set [21] is described as follows: Cytotoxicity against HEK cells. The class given is cell-based. As to conditions: human, hek293.
Data set [22] deals with Nucleic Acid. Kind of data set: Inhibition of mature-miR-4644 expression in human HeLa cells at 4 uM after 10 mins by qRT-PCR analysis. The class given is cell-based.

The source made the active and inactive calls. The rule behind the calls is not given here.

As a reminder, the inhibition is how much of the control response was suppressed. In the case of `O=C1CC(c2c[nH]c3ccccc23)Nc2ccccc21` (stereo unspecified), the inhibition in the data set on Nucleic Acid [1] was found to be 21%; in the data set on Nucleic Acid [2], 56%.
For `COc1ccc(C2CC(=O)c3ccccc3N2)cc1` (stereo unspecified), the inhibition entry with Nucleic Acid [3] and in the data set with Nucleic Acid [4] was “inactive” each time.
Take `O=C1CC(c2ccccc2)Nc2ccccc21` (stereo unspecified): the inhibition result in the data set with Nucleic Acid [3] and in the data set on Nucleic Acid [4] was “inactive” each time.
For `O=C1CC(c2ccc(Br)cc2)Nc2ccccc21` (stereo unspecified), the inhibition entry in the data set with Drosophila [5], with Nucleic Acid [11] and in the data set with Drosophila [16] was “Active” each time. The Activity entry in the data set on MCF-10A is on record as “Non-toxic”; in the data set with MCF7 [6] it was 7%; with MCF7 [12], 9%; with MCF7 [13], 83%; in [21], “Non-toxic”. Also, the fold change (FC) with Nucleic Acid [3] came out at 3; with Nucleic Acid [4], 3; in the data set with Drosophila [18] it was 5. The entries for the “Ratio IC50” value with MCF7 [7] and in the data set on MCF7 [20] were 3 and 2, respectively. Also, the inhibition in the data set on Nucleic Acid [8], with Nucleic Acid [10], with Nucleic Acid [14] and in the data set with Nucleic Acid [22] was 20% throughout. For the same molecule, the outcome in the data set with Drosophila [9] and in the data set on Drosophila [19] was Active. In addition, in the data set with Drosophila [15], the outcome was inactive. Also, in the data set with Nucleic Acid [17], the inhibition result is “inactive”.
On to `Cc1cc(C)c(C2CC(=O)c3ccccc3N2)c(C)c1` (stereo unspecified), for which the inhibition with Nucleic Acid [1] was 21%; with Nucleic Acid [2] it was 56%.
The like results for `Cc1ccc(S(=O)(=O)Oc2ccc(C3CC(=O)c4ccccc4N3)c(OS(=O)(=O)c3ccc(C)cc3)c2)cc1` (stereo unspecified) were, in that order, 21% and 56%.
For `CC(=O)Oc1ccc(C2CC(=O)c3ccccc3N2)c(OC(C)=O)c1` (stereo unspecified) the same measures were 21% and 56%.
As to `O=C1CC(c2ccc(O)cc2O)Nc2ccccc21` (stereo unspecified), the inhibition result with Drosophila [5], in the data set with Nucleic Acid [11] and in the data set on Drosophila [16] was “Active” in each case. The Activity entry is on record as “Non-toxic” in the data set on MCF-10A; 7% in the data set with MCF7 [6]; 8% in the data set on MCF7 [12]; 85% with MCF7 [13]; “Non-toxic” in data set [21]. The fold change (FC) with Nucleic Acid [3] stood at 3; with Nucleic Acid [4] it was 3; with Drosophila [18], 5. Also, the “Ratio IC50” value amounted to 3 in the data set on MCF7 [7] and 2 in the data set with MCF7 [20]. For the same molecule, the inhibition in the data set on Nucleic Acid [8], with Nucleic Acid [10], with Nucleic Acid [14] and in the data set on Nucleic Acid [22] was 20% each time. Besides, the result in the data set on Drosophila [9] and in the data set with Drosophila [19] was Active. Moreover, in the data set with Drosophila [15], the outcome was inactive. Besides, the inhibition entry with Nucleic Acid [17] is “inactive”.
Consider `O=C1CC(c2ccc(-c3ccoc3)cc2)Nc2ccccc21` (stereo unspecified), for which the inhibition with Nucleic Acid [1] amounted to 21%; in the data set on Nucleic Acid [2] it was 56%.
